Results published in PubChem BioAssay (NCI).
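Where inhibition never reached the appropriate level, the endpoint shown equals the highest concentration tested. Otherwise, values were interpolated linearly from a five-concentration, 48-hour dose response in 96-well plates. The concentration for 50% growth inhibition is given as GI50. TGI marks complete inhibition of growth.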

Legend:
Assay in all cases: growth of human tumour cells (NCI), 48 h
HT29 colon = tested on: HT29 colon
TK-10 renal = tested on: TK-10 renal
MCF7 breast = tested on: MCF7 breast
EKVX NSCLC = tested on: EKVX NSCLC
RPMI-8226 leukemia = tested on: RPMI-8226 leukemia
UO-31 renal = tested on: UO-31 renal
CAKI-1 renal = tested on: CAKI-1 renal
SW-620 colon = tested on: SW-620 colon
HOP-62 NSCLC = tested on: HOP-62 NSCLC
NCI-H460 lung = tested on: NCI-H460 lung
NCI-H522 lung = tested on: NCI-H522 lung
U251 CNS = tested on: U251 CNS
LOX IMVI melanoma = tested on: LOX IMVI melanoma
K-562 leukemia = tested on: K-562 leukemia
M14 melanoma = tested on: M14 melanoma
786-0 renal = tested on: 786-0 renal
SNB-19 CNS = tested on: SNB-19 CNS
NCI/ADR-RES ovarian = tested on: NCI/ADR-RES ovarian
HCT-15 colon = tested on: HCT-15 colon
CCRF-CEM leukemia = tested on: CCRF-CEM leukemia
SK-MEL-5 melanoma = tested on: SK-MEL-5 melanoma
COLO 205 colon = tested on: COLO 205 colon
SK-OV-3 ovarian = tested on: SK-OV-3 ovarian
OVCAR-3 ovarian = tested on: OVCAR-3 ovarian
DU-145 prostate = tested on: DU-145 prostate
KM12 colon = tested on: KM12 colon
HS 578T breast = tested on: HS 578T breast
OVCAR-8 ovarian = tested on: OVCAR-8 ovarian
NCI-H23 lung = tested on: NCI-H23 lung
BT-549 breast = tested on: BT-549 breast
HCC-2998 colon = tested on: HCC-2998 colon
SNB-75 CNS = tested on: SNB-75 CNS
UACC-62 melanoma = tested on: UACC-62 melanoma
OVCAR-5 ovarian = tested on: OVCAR-5 ovarian
SF-539 CNS = tested on: SF-539 CNS
OVCAR-4 ovarian = tested on: OVCAR-4 ovarian
HCT-116 colon = tested on: HCT-116 colon
SR leukemia = tested on: SR leukemia
T-47D breast = tested on: T-47D breast
IGROV1 ovarian = tested on: IGROV1 ovarian
SK-MEL-2 melanoma = tested on: SK-MEL-2 melanoma
SF-268 CNS = tested on: SF-268 CNS
ACHN renal = tested on: ACHN renal
NCI-H226 lung = tested on: NCI-H226 lung
HOP-92 NSCLC = tested on: HOP-92 NSCLC
SK-MEL-28 melanoma = tested on: SK-MEL-28 melanoma
SN12C renal = tested on: SN12C renal
MDA-MB-231 breast = tested on: MDA-MB-231 breast
UACC-257 melanoma = tested on: UACC-257 melanoma
PC-3 prostate = tested on: PC-3 prostate
A549 NSCLC = tested on: A549 NSCLC
MDA-MB-435 = tested on: MDA-MB-435
SF-295 CNS = tested on: SF-295 CNS
A498 renal = tested on: A498 renal
MALME-3M melanoma = tested on: MALME-3M melanoma
MOLT-4 leukemia = tested on: MOLT-4 leukemia
RXF 393 renal = tested on: RXF 393 renal
HL-60(TB) leukemia = tested on: HL-60(TB) leukemia

CCOC(=O)c1cc(-c2ccccc2)[nH]c1N/N=C/c1c(Cl)cccc1Cl
GI50 (HT29 colon): 0.836 µM | TGI (HT29 colon): 16.3 µM | GI50 (TK-10 renal): 13.2 µM | TGI (TK-10 renal): > 87.8 µM | GI50 (MCF7 breast): 0.45 µM | TGI (MCF7 breast): > 100 µM | GI50 (EKVX NSCLC): 5.96 µM | TGI (EKVX NSCLC): > 100 µM | GI50 (RPMI-8226 leukemia): 2.11 µM | TGI (RPMI-8226 leukemia): 11.3 µM | GI50 (UO-31 renal): 1.34 µM | TGI (UO-31 renal): > 100 µM | GI50 (CAKI-1 renal): 0.409 µM | TGI (CAKI-1 renal): 31.1 µM | GI50 (SW-620 colon): 0.433 µM | TGI (SW-620 colon): > 81.2 µM | GI50 (HOP-62 NSCLC): 2.37 µM | TGI (HOP-62 NSCLC): 41.4 µM | GI50 (NCI-H460 lung): 0.909 µM | TGI (NCI-H460 lung): > 61.7 µM | GI50 (NCI-H522 lung): 0.701 µM | TGI (NCI-H522 lung): > 26.2 µM | GI50 (U251 CNS): 1.25 µM | TGI (U251 CNS): > 60.4 µM | GI50 (LOX IMVI melanoma): 3.05 µM | TGI (LOX IMVI melanoma): > 100 µM | GI50 (K-562 leukemia): 0.491 µM | TGI (K-562 leukemia): 13.7 µM | GI50 (M14 melanoma): 1.71 µM | TGI (M14 melanoma): 25.3 µM | GI50 (786-0 renal): 1.39 µM | TGI (786-0 renal): 49 µM | GI50 (SNB-19 CNS): 3.06 µM | TGI (SNB-19 CNS): > 60.4 µM | GI50 (NCI/ADR-RES ovarian): 0.509 µM | TGI (NCI/ADR-RES ovarian): 14.6 µM | GI50 (HCT-15 colon): 0.671 µM | TGI (HCT-15 colon): > 100 µM | GI50 (CCRF-CEM leukemia): 2.3 µM | TGI (CCRF-CEM leukemia): 13.5 µM | GI50 (SK-MEL-5 melanoma): 0.706 µM | TGI (SK-MEL-5 melanoma): 14.1 µM | GI50 (COLO 205 colon): 2.71 µM | TGI (COLO 205 colon): 15.3 µM | GI50 (SK-OV-3 ovarian): 2.4 µM | TGI (SK-OV-3 ovarian): > 100 µM | GI50 (OVCAR-3 ovarian): 0.248 µM | TGI (OVCAR-3 ovarian): 1.04 µM | GI50 (DU-145 prostate): 1.59 µM | TGI (DU-145 prostate): 11.7 µM | GI50 (KM12 colon): 0.584 µM | TGI (KM12 colon): 24.3 µM | GI50 (HS 578T breast): 0.538 µM | TGI (HS 578T breast): 37.2 µM | GI50 (OVCAR-8 ovarian): 4.77 µM | TGI (OVCAR-8 ovarian): > 100 µM | GI50 (NCI-H23 lung): 1.33 µM | TGI (NCI-H23 lung): 40.4 µM | GI50 (BT-549 breast): 1.24 µM | TGI (BT-549 breast): 18.9 µM | GI50 (HCC-2998 colon): 1.01 µM | TGI (HCC-2998 colon): 7.48 µM | GI50 (SNB-75 CNS): 1.53 µM | TGI (SNB-75 CNS): > 39.6 µM | GI50 (UACC-62 melanoma): 2.03 µM | TGI (UACC-62 melanoma): > 100 µM | GI50 (OVCAR-5 ovarian): 4.99 µM | TGI (OVCAR-5 ovarian): 98 µM | GI50 (SF-539 CNS): 0.467 µM | TGI (SF-539 CNS): 3.73 µM | GI50 (OVCAR-4 ovarian): 13.4 µM | TGI (OVCAR-4 ovarian): > 100 µM | GI50 (HCT-116 colon): 0.729 µM | TGI (HCT-116 colon): > 36.7 µM | GI50 (SR leukemia): 0.413 µM | TGI (SR leukemia): 10.2 µM | GI50 (T-47D breast): > 21.2 µM | TGI (T-47D breast): > 100 µM | GI50 (IGROV1 ovarian): 0.752 µM | TGI (IGROV1 ovarian): 29.3 µM | GI50 (SK-MEL-2 melanoma): 0.961 µM | TGI (SK-MEL-2 melanoma): 87.5 µM | GI50 (SF-268 CNS): 1.14 µM | TGI (SF-268 CNS): > 100 µM | GI50 (ACHN renal): 0.874 µM | TGI (ACHN renal): > 100 µM | GI50 (NCI-H226 lung): 1.5 µM | TGI (NCI-H226 lung): 12.4 µM | GI50 (HOP-92 NSCLC): 2.02 µM | TGI (HOP-92 NSCLC): 62.4 µM | GI50 (SK-MEL-28 melanoma): 3.35 µM | TGI (SK-MEL-28 melanoma): > 75 µM | GI50 (SN12C renal): 4.3 µM | TGI (SN12C renal): > 100 µM | GI50 (MDA-MB-231 breast): 3.7 µM | TGI (MDA-MB-231 breast): 25.4 µM | GI50 (UACC-257 melanoma): 49.2 µM | TGI (UACC-257 melanoma): > 100 µM | GI50 (PC-3 prostate): 0.502 µM | TGI (PC-3 prostate): 37.5 µM | GI50 (A549 NSCLC): 1.92 µM | TGI (A549 NSCLC): > 100 µM | GI50 (MDA-MB-435): 0.272 µM | TGI (MDA-MB-435): 2.83 µM | GI50 (SF-295 CNS): 0.339 µM | TGI (SF-295 CNS): 10.3 µM | GI50 (A498 renal): 1.08 µM | TGI (A498 renal): 43.7 µM | GI50 (MALME-3M melanoma): 3.9 µM | TGI (MALME-3M melanoma): > 100 µM | GI50 (MOLT-4 leukemia): 4.24 µM | TGI (MOLT-4 leukemia): 24.3 µM | GI50 (RXF 393 renal): 0.47 µM | TGI (RXF 393 renal): 9.51 µM | GI50 (HL-60(TB) leukemia): 0.484 µM | TGI (HL-60(TB) leukemia): 5.13 µM
